“Also recorded” adds a separate entry of the source. Ends that are not written are not given here.
How the values were obtained:
Format in all cases: cell-based, human
[1] = tested on: COS7 transfected with full length KIF20A gene and HLA-A*2402; test: Specific CTL activity against transfected target cells; conditions: CTL line or clone raised by the peptide, vs control transfectants
Protocol: (§1) Briefly, peptide-pulsed A24-LCL or T2 cell (1×10^4/well) was prepared as stimulator cells. Cultured Cells in 48 wells or CTL clones after limiting dilution were used as responder cells. IFN-gamma ELISPOT assay and ELISA assay were performed under manufacture procedure.
(§2) The cDNA encoding an open reading frame of target genes or HLA-A02 or HLA-A24 was amplified by PCR. The PCR-amplified product was cloned into pcDNA3.1 myc-His vector (Invitrogen). The plasmids were transfected into the target cells, HLA-A02 and HLA-A24-null normal human cell line COS7 or 293T using lipofectamine (Invitrogen) according to the manufacturer's recommended procedures. Alternatively, the plasmid contained the target genes were transfected into A24-LCL by electroporation using GenePulserII (Biorad). Briefly, 2.5×10^6 A24-LCL cells were pulsed with 10 mcg prasmid at 140V and 1000 micro F. After 2 days from transfection, the transfected cells were treated with Cell dissociation solution and used as the target cells for CTL activity assay.
The established CTL line raised against these peptides were examined for their ability to recognize the target cells expressing KIF20A and HLA-A*2402. […]

[2] = tested on: peptide-pulsed A24-LCL cells; test: CTL clones by limiting dilution, specific CTL activity; conditions: HLA-A24 peptides; vs target without peptide pulse
Protocol: The dilutions were made to have 0.3, 1, and 3 CTLs/well in 96 round-bottomed micro titer plate (Nalge Nunc International). CTLs were cultured with 7×10^4 cells/well of 2 kinds of human B-lymphoblastoid cell lines, 30 ng/ml of anti-CD3 antibody, and 125 U/ml of IL-2 in total of 150 micro 1/well of AIM-V containing 5% AS. 50 micro 1/well of IL-2 was added to the medium 10 days later so that IL-2 became 125 U/ml in the final concentration. CTL activity of CTLs was tested on the 14th day, and CTL clones were expanded using the same method above.
as §1

[3] = tested on: peptide-pulsed A24-LCL cells; test: IFN-gamma ELISPOT assay (positive wells); conditions: HLA-A24 peptides; as compared to the control
Procedure, shortened: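 PBMC-derived DCs from HLA-A*2402 and/or A*0201 donors, pulsed with 20 micro g/ml peptide plus 3 micro g/ml beta 2-microglobulin, stimulated autologous CD8+ T cells three times (days 0, 7, 14). On day 21, responders were tested against peptide-pulsed A24-LCL or T2 cells by IFN-gamma ELISPOT. Values are reported as positive wells/wells tested; CTL lines confirmed by ELISA.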

[4] = tested on: peptide-pulsed A24-LCL cells; test: CTL line establishment, IFN-gamma ELISA; conditions: HLA-A24 peptides; vs target without peptide pulse
Procedure, shortened: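 Peptide-pulsed A24-LCL or T2 cells (1×10^4/well) served as stimulators for responder cells from 48-well cultures or limiting-dilution CTL clones. Positive wells scored by IFN-gamma ELISPOT; CTL line establishment from positive wells confirmed by IFN-gamma ELISA; lines expanded with anti-CD3 (40 ng/ml), IL-2 and MMC-inactivated B-LCL feeders.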

[5] = tested on: target cells pulsed with the peptide; test: 51Cr release cytotoxicity assay
Protocol: (§3) Cytotoxic activity was evaluated by a four-hour ^51Cr release assay. The target cells were pulsed with a 20 micro g/mL concentration of peptide overnight. The target cells were labeled with 100 micro Ci of Na2^51CrO4 at 37 degrees C. for one hour, and then washed three times with RPMI1640. The target cells (1×10^4/100 micro L) and 100 micro L of effector cells at various numbers with a total volume of 200 micro L were placed into a round-bottomed 96-well microtiter plate (Corning), and cultured at 37 degrees C. in a CO2 incubator for four hours. After culturing, 100 micro L of the supernatant was collected from each well, and measured the radioactivity using a gamma counter. Spontaneous release was the radioactivity from the target cells with medium in the absence of effector cells, and maximum release was the radioactivity from the target cells with 1 M HCl.
(§4) The Percentage of specific cytotoxicity was determined by calculating as following formula: % Specific lysis=[(experimental release−spontaneous release)/(maximum release−spontaneous release)]×100. Results Enhanced CDH3, EPHA4, ECT2, HIG2, INHBB, KIF20A, KNTC2, TTK and URLC10 Expression in Cancers

peptide-pulsed T2 cells [6] = test: IFN-gamma ELISPOT assay (positive wells); conditions: HLA-A02 peptides; as compared to the control
Procedure, shortened: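 CD8+ T cells from HLA-A*2402 and/or HLA-A*0201 donors were stimulated 1:20 with autologous monocyte-derived DCs pulsed with 20 µg/ml peptide plus β2-microglobulin, in IL-7, with IL-2 added, restimulated on days 7 and 14. On day 21, IFN-γ ELISPOT against peptide-pulsed T2 or A24-LCL cells (1×10^4/well) scored wells as positive, with CTL lines confirmed by ELISA.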

[7] = tested on: 293T transfected with full length HIG2 gene and HLA-A*0201; test: Specific CTL activity against transfected target cells; conditions: CTL line raised by the peptide; vs control transfectants; listed as HIG2-A02-9-8
Protocol: as §1, §2
(§5) The established CTL line raised against these peptides were examined for their ability to recognize the target cells expressing HIG2 and HLA-A*0201. […] 293T or COS7 transfected with full length ECT2 but not HLA-A*0201 and 293T or COS7 transfected with HLA-A*0201 but not full length ECT2 (or replaced other gene e.g. FoxP3 or TTK) were prepared as controls.

peptide-pulsed T2 cells [8] = test: CTL line establishment, IFN-gamma ELISA; conditions: HLA-A02 peptides; vs target without peptide pulse
Procedure, shortened: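 CTLs expanded with MMC-inactivated B-lymphoblastoid lines, 40 ng/ml anti-CD3 and IL-2 (120 IU/ml day 1, then 30 IU/ml on days 5, 8, 11). Peptide-pulsed T2 or A24-LCL stimulators (1×10^4/well) incubated with cultured wells or limiting-dilution clones as responders; IFN-gamma detected by ELISPOT (positive wells) and ELISA (established CTL lines).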

TE6 cancer cell line = test: 51Cr release cytotoxicity assay; conditions: TE6 endogenously expressing ECT2 and HLA-A24; listed as ECT2-A24-9-515
Protocol: as §3, §4
(§6) Furthermore, Cytotoxic activity was examined by cytotoxicity assay according to the protocols set forth in the “Materials and Methods” section above.

TE5 cancer cell line = test: 51Cr release cytotoxicity assay; conditions: TE5 expressing only ECT2
Protocol: as §3, §4, §6

[9] = tested on: MIAPaca2 cancer cell line; test: 51Cr release cytotoxicity assay
Protocol: as §3, §4
Furthermore, Cytotoxic activity was performed by cytotoxicity assay according to the protocols set forth in the “Materials and Methods” section above. […]

Caki-1 cancer cell line = test: 51Cr release cytotoxicity assay; conditions: Caki-1 expressing INHBB but not HLA-A02
Protocol: as §3, §4, §6

[10] = tested on: COS7 transfected with full length HIG2 gene and HLA-A*0201; test: Specific CTL activity against transfected target cells; conditions: CTL line raised by the peptide; vs control transfectants; listed as HIG2-A02-9-15
Protocol: as §1, §2, §5

[11] = tested on: COS7, Hek293 and 293T transfected with full length URLC10 gene and HLA-A*0201; test: as above; conditions: vs control transfectants; listed as URLC10-A02-10-211
Protocol: as §1, §2
The established CTL line raised against these peptides were examined for their ability to recognize the target cells endogenously expressing URLC10 and HLA-A*0201. […]

[12] = tested on: HEK293 transfected with full length KNTC2 gene and HLA-A*2402; test: as above; conditions: vs control transfectants; listed as KNTC2-A24-10-452
Protocol: as §1, §2
The established CTL line raised against these peptides were examined for their ability to recognize the target cells expressing KNTC2 and HLA-A*2402. […] HEK293 transfected with full length KNTC2 but not HLA-A*2402, HEK293 transfected with HLA-A*2402 but not full length KNTC2 and HEK293 transfected with HLA-A*2402 and pulsed with KNTC2-9-309 were prepared as controls.

PK45P cancer cell line = test: 51Cr release cytotoxicity assay; conditions: PK45P expressing both KIF20A and HLA-A24; listed as KIF20A-A24-9-305
Protocol: as §3, §4, §6

PK59 cancer cell line = test: 51Cr release cytotoxicity assay; conditions: PK59 expressing KIF20A but not HLA-A24
Protocol: as §3, §4, §6

SEQ ID NO: 194: HLA-A*2402 binding 10-mer peptide derived from KIF20A (KVYLRVRPLL)
Specific CTL activity against COS7 transfected with both KIF20A and HLA-A24 ([1]; listed as KIF20A-A24-10-66): highest specific CTL activity
CTL activities of CTL clones against the peptide-pulsed target [2]: potent and specific CTL activities
IFN-gamma production by IFN-gamma ELISPOT assay [3]: potent IFN-gamma production
Establishment of CTL line, specific CTL activity against the peptide-pulsed target determined by ELISA [4]: CTL lines were established

GLNPLTSYV [SEQ ID NO: 376, GLNPLTSYV]
Cytotoxic activity of CTL line against target cells pulsed with the peptide (Cr-release assay) [5]: very potent specific cytotoxic activity

YLLGVVLTL [SEQ ID NO: 114]
IFN-gamma production by IFN-gamma ELISPOT assay (peptide-pulsed T2 cells [6]): potent IFN-gamma production
Specific CTL activity against 293T transfected with both HIG2 and HLA-A02 [7]: highest specific CTL activity; also recorded: high specific CTL activity
Establishment of CTL line, specific CTL activity against the peptide-pulsed target determined by ELISA (peptide-pulsed T2 cells [8]): CTL lines were established

TYPPFVNFF [SEQ ID NO: 80, TYPPFVNFF]
Cytotoxic activity against TE6 (Cr-release assay) (TE6 cancer cell line): remarkably high cytotoxic effect; also recorded: very potent cytotoxic activity
Cytotoxic activity against TE5 (Cr-release assay) (TE5 cancer cell line): did not demonstrate the cytotoxic activity

LYLKLLPYV [SEQ ID NO: 395]
Cytotoxic activity against MIAPaca2 (Cr-release assay) ([9]; INHBB-positive, compared to CAki-2, listed as INHBB-A24-9-180): remarkably high cytotoxic effect; also recorded: high specific cytotoxic activity
Cytotoxic activity against Caki-1 (Cr-release assay) (Caki-1 cancer cell line): did not show significant specific cytotoxic activity

TLLSIFVRV [SEQ ID NO: 116]
IFN-gamma production by IFN-gamma ELISPOT assay (peptide-pulsed T2 cells [6]): potent IFN-gamma production
Specific CTL activity against COS7 transfected with both HIG2 and HLA-A02 [10]: highest specific CTL activity; also recorded: high specific CTL activity
Establishment of CTL line, specific CTL activity against the peptide-pulsed target determined by ELISA (peptide-pulsed T2 cells [8]): CTL lines were established

SEQ ID NO: 288: HLA-A*0201 binding 10-mer peptide derived from URLC10 (LLLASIAAGL)
Specific CTL activity against COS7, Hek293 and 293T transfected with both URLC10 and HLA-A02 [11]: highest specific CTL activity; also recorded: high specific CTL activity
IFN-gamma production by IFN-gamma ELISPOT assay (peptide-pulsed T2 cells [6]): potent IFN-gamma production
Establishment of CTL line, specific CTL activity against the peptide-pulsed target determined by ELISA (peptide-pulsed T2 cells [8]): CTL line and clones, were established

SEQ ID NO: 214: HLA-A*2402 binding 10-mer peptide derived from KNTC2 (KYRAQVYVPL)
Specific CTL activity against HEK293 transfected with both KNTC2 and HLA-A24 [12]: highest specific CTL activity
CTL activities of CTL clones against the peptide-pulsed target [2]: potent and specific CTL activities
IFN-gamma production by IFN-gamma ELISPOT assay [3]: potent IFN-gamma production
Establishment of CTL line, specific CTL activity against the peptide-pulsed target determined by ELISA [4]: CTL lines were established

KLNTEIRDV [SEQ ID NO: 379, KLNTEIRDV]
Cytotoxic activity of CTL line against target cells pulsed with the peptide (Cr-release assay) [5]: very potent specific cytotoxic activity

SEQ ID NO: 178: HLA-A*2402 binding 9-mer peptide derived from KIF20A (IFSIRILHL)
Specific CTL activity against COS7 transfected with both KIF20A and HLA-A24 ([1]; listed as KIF20A-A24-9-383): highest specific CTL activity; also recorded: high specific CTL activity
IFN-gamma production by IFN-gamma ELISPOT assay [3]: potent IFN-gamma production
Establishment of CTL line, specific CTL activity against the peptide-pulsed target determined by ELISA [4]: CTL lines were established

FFEIYNELL [SEQ ID NO: 174]
Cytotoxic activity against PK45P (Cr-release assay) (PK45P cancer cell line): remarkably high cytotoxic effect; also recorded: very potent cytotoxic activity
Cytotoxic activity against PK59 (Cr-release assay) (PK59 cancer cell line): did not show significant specific cytotoxic activity

SFFEIYNELL [SEQ ID NO: 186]
Cytotoxic activity against MIAPaca2 (Cr-release assay) ([9]; Miapaca2 expressing both KIF20A and HLA-A24, listed as KIF20A-A24-10-304): remarkably high cytotoxic effect; also recorded: very potent specific cytotoxic activity
Cytotoxic activity against PK59 (Cr-release assay) (PK59 cancer cell line): did not show significant specific cytotoxic activity

Reference: patent publication US8759481B2, “Peptide vaccines for cancers expressing tumor-associated antigens” (Oncotherapy Science, Inc., priority 2007, dated 2014)
